# Read-outs that look alike come from different tables or passages of the source. No end group written: not given here.
# Legend:
# K. pneumoniae OXA-48 = assay: microbe, parasite or virus in culture; settings: for MIC K. pneumoniae OXA-48: supplement CSV
# Summary of the method: (§1)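 Minimal inhibitory concentrations come from broth microdilution in MH medium, with a top peptide concentration of 64 μg/mL halved serially.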
# E. cloacae = assay: microbe, parasite or virus in culture; settings: for MIC E. cloacae: supplement CSV
# Summary of the method: as §1
# [1] = tested on: P. aeruginosa PA14 2P4 (pmrB); assay: microbe, parasite or virus in culture; settings: for MIC P. aeruginosa PA14 2P4: supplement CSV
# Summary of the method: as §1
# P. aeruginosa PA14 = assay: microbe, parasite or virus in culture; settings: for MIC P. aeruginosa PA14: supplement CSV
# Summary of the method: as §1
# P. aeruginosa ZEM9A = assay: microbe, parasite or virus in culture; settings: for MIC P. aeruginosa ZEM9A: supplement CSV
# Summary of the method: as §1
# P. aeruginosa ZEM-1A = assay: microbe, parasite or virus in culture
# Summary of the method: as §1
# K. pneumoniae NCTC 418 = assay: microbe, parasite or virus in culture; settings: for MIC K. pneumoniae NCTC418: supplement CSV
# Summary of the method: (§2)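 Read-out was visible growth after MTT addition, the MIC being the lowest inhibitory peptide concentration. Bacteria grown to log phase in LB were exposed in MH medium to peptide from 64 μg/mL in twofold dilutions for 15-18h at 37°C.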
# P. aeruginosa PAO1 = assay: microbe, parasite or virus in culture; settings: for MIC P. aeruginosa PAO1: supplement CSV
# Summary of the method: as §2
# E. coli W3110 = assay: microbe, parasite or virus in culture; settings: for MIC E. coli W3110: supplement CSV
# Summary of the method: as §2
# A. baumannii ATCC19606 = assay: microbe, parasite or virus in culture; settings: for MIC A. baumannii ATCC19606: supplement CSV
# Summary of the method: as §2
# S. aureus COL (MRSA) = assay: microbe, parasite or virus in culture; settings: for MIC S. aureus COL (MRSA): supplement CSV
# Summary of the method: as §2
# [2] = tested on: P. aeruginosa PA14 4.13 (phoQ); settings: for MIC P. aeruginosa PA14 4.13: supplement CSV
# [3] = tested on: P. aeruginosa PA14 4.18 (pmrB); settings: for MIC P. aeruginosa PA14 4.18: supplement CSV
# human red blood cells = assay: Hemolysis assay, minimum hemolytic concentration
# [4] = polymyxin B resistant strain, 12.5% MHB pH 7.4, 16–20 h at 37 °C
# [5] = polymyxin B resistant strain, full MHB pH 7.4, 16–20 h at 37 °C
substance,measurement,setting,value
"VDKPPYLPRPRPPRRIYNR-NH2 [L-Onc, reference compound]","MIC K. pneumoniae OXA-48, 12.5% MHB","K. pneumoniae OXA-48; carbapenem-resistant, 12.5% MHB pH 7.4, 16–20 h at 37 °C",2 µg/mL
same,"MIC K. pneumoniae OXA-48, full MHB","K. pneumoniae OXA-48; carbapenem-resistant, full MHB pH 7.4, 16–20 h at 37 °C",32 µg/mL
same,MIC K. pneumoniae OXA-48,K. pneumoniae OXA-48; 12.5% MH pH 7.4,2 µg/mL
same,MIC K. pneumoniae OXA-48,K. pneumoniae OXA-48; full MH pH 7.4,32 µg/mL
same,"MIC E. cloacae, 12.5% MHB","E. cloacae; 12.5% MHB pH 7.4, 16–20 h at 37 °C",1 µg/mL
same,"MIC E. cloacae, full MHB","E. cloacae; full MHB pH 7.4, 16–20 h at 37 °C",32 µg/mL
same,MIC E. cloacae,E. cloacae; 12.5% MH pH 7.4,1 µg/mL
same,MIC E. cloacae,E. cloacae; full MH pH 7.4,32 µg/mL
same,"MIC P. aeruginosa PA14 2P4 (pmrB), 12.5% MHB",[1]; [4],16 µg/mL
same,"MIC P. aeruginosa PA14 2P4 (pmrB), full MHB",[1]; [5],> 64 µg/mL
same,MIC P. aeruginosa PA14 2P4,[1]; 12.5% MH pH 7.4,16 µg/mL
same,MIC P. aeruginosa PA14 2P4,[1]; full MH pH 7.4,>64 µg/mL
same,"MIC P. aeruginosa PA14, 12.5% MHB","P. aeruginosa PA14; 12.5% MHB pH 7.4, 16–20 h at 37 °C, two different duplicate MIC determinations",32 µg/mL
same,"MIC P. aeruginosa PA14, full MHB","P. aeruginosa PA14; full MHB pH 7.4, 16–20 h at 37 °C, two different duplicate MIC determinations",> 64 µg/mL
same,MIC P. aeruginosa PA14,P. aeruginosa PA14; 12.5% MH pH 7.4,32 µg/mL
same,MIC P. aeruginosa PA14,P. aeruginosa PA14; full MH pH 7.4,>64 µg/mL
same,"MIC P. aeruginosa ZEM9A, 12.5% MHB","P. aeruginosa ZEM9A; clinical isolate, 12.5% MHB pH 7.4, 16–20 h at 37 °C",32 µg/mL
same,"MIC P. aeruginosa ZEM9A, full MHB","P. aeruginosa ZEM9A; clinical isolate, full MHB pH 7.4, 16–20 h at 37 °C",> 64 µg/mL
same,MIC P. aeruginosa ZEM9A,P. aeruginosa ZEM9A; 12.5% MH pH 7.4,32 µg/mL
same,MIC P. aeruginosa ZEM9A,P. aeruginosa ZEM9A; full MH pH 7.4,>64 µg/mL
same,"MIC P. aeruginosa ZEM-1A, 12.5% MHB","P. aeruginosa ZEM-1A; clinical isolate, 12.5% MHB pH 7.4, 16–20 h at 37 °C, cells marked c: single measurement (in duplicates)",8 to 16 µg/mL
same,MIC P. aeruginosa ZEM-1A,"P. aeruginosa ZEM-1A; supplement CSV, 12.5% MH pH 7.4",8 to 16 µg/mL
same,"MIC K. pneumoniae, 12.5% MHB","K. pneumoniae NCTC 418; K. pneumoniae NCTC 418, 12.5% Müller–Hinton medium, 16–20 h at 37 °C",4 / 4 μg/mL
same,"MIC K. pneumoniae, Full MHB","K. pneumoniae NCTC 418; K. pneumoniae NCTC 418, full Müller–Hinton medium, 16–20 h at 37 °C",4 / 4 μg/mL
same,MIC K. pneumoniae NCTC418,K. pneumoniae NCTC 418; 12.5% MH pH 7.4,4 µg/mL
same,MIC K. pneumoniae NCTC418,K. pneumoniae NCTC 418; full MH pH 7.4,4 µg/mL
same,"MIC P. aeruginosa, 12.5% MHB","P. aeruginosa PAO1; P. aeruginosa PAO1, 12.5% Müller–Hinton medium, 16–20 h at 37 °C",16 µg/mL
same,"MIC P. aeruginosa, Full MHB","P. aeruginosa PAO1; P. aeruginosa PAO1, full Müller–Hinton medium, 16–20 h at 37 °C",> 64 µg/mL
same,MIC P. aeruginosa PAO1,P. aeruginosa PAO1; 12.5% MH pH 7.4,16 µg/mL
same,MIC P. aeruginosa PAO1,P. aeruginosa PAO1; full MH pH 7.4,>64 µg/mL
same,"MIC E. coli, 12.5% MHB","E. coli W3110; E. coli W3110, 12.5% Müller–Hinton medium, 16–20 h at 37 °C, broth microdilution",2 µg/mL
same,"MIC E. coli, Full MHB","E. coli W3110; E. coli W3110, full Müller–Hinton medium, 16–20 h at 37 °C, broth microdilution",4 µg/mL
same,MIC E. coli W3110,E. coli W3110; 12.5% MH pH 7.4,2 µg/mL
same,MIC E. coli W3110,E. coli W3110; full MH pH 7.4,4 µg/mL
same,"MIC A. baumannii, 12.5% MHB","A. baumannii ATCC19606; A. baumannii ATCC19606, 12.5% Müller–Hinton medium, 16–20 h at 37 °C",4 µg/mL
same,"MIC A. baumannii, Full MHB","A. baumannii ATCC19606; A. baumannii ATCC19606, full Müller–Hinton medium, 16–20 h at 37 °C",32 µg/mL
same,MIC A. baumannii ATCC19606,A. baumannii ATCC19606; 12.5% MH pH 7.4,4 µg/mL
same,MIC A. baumannii ATCC19606,A. baumannii ATCC19606; full MH pH 7.4,32 µg/mL
same,"MIC S. aureus, 12.5% MHB","S. aureus COL (MRSA); S. aureus COL (MRSA), 12.5% Müller–Hinton medium, 16–20 h at 37 °C",32 µg/mL
same,"MIC S. aureus, Full MHB","S. aureus COL (MRSA); S. aureus COL (MRSA), full Müller–Hinton medium, 16–20 h at 37 °C",> 64 µg/mL
same,MIC S. aureus COL (MRSA),S. aureus COL (MRSA); 12.5% MH pH 7.4,32 µg/mL
same,MIC S. aureus COL (MRSA),S. aureus COL (MRSA); full MH pH 7.4,>64 µg/mL
same,"MIC P. aeruginosa PA14 4.13 (phoQ), 12.5% MHB",[2]; [4],16 µg/mL
same,"MIC P. aeruginosa PA14 4.13 (phoQ), full MHB",[2]; [5],> 64 µg/mL
same,MIC P. aeruginosa PA14 4.13,[2]; 12.5% MH pH 7.4,16 µg/mL
same,MIC P. aeruginosa PA14 4.13,[2]; full MH pH 7.4,>64 µg/mL
same,"MIC P. aeruginosa PA14 4.18 (pmrB), 12.5% MHB",[3]; [4],32 µg/mL
same,"MIC P. aeruginosa PA14 4.18 (pmrB), full MHB",[3]; [5],> 64 µg/mL
same,MIC P. aeruginosa PA14 4.18,[3]; 12.5% MH pH 7.4,32 µg/mL
same,MIC P. aeruginosa PA14 4.18,[3]; full MH pH 7.4,>64 µg/mL
same,"Haemolysis on hRBC, MHC","human red blood cells; 2.5% human red blood cells (final) in 10 mM phosphate, 150 mM NaCl, pH 7.4, 25 °C, 4 h, visual inspection",>1000 µg/mL
same,MHC human red blood cells,human red blood cells; supplement CSV,>1000 µg/mL

# Source: PMC11571207, “Stereorandomized Oncocins with Preserved Ribosome Binding and Antibacterial Activity” (Journal of Medicinal Chemistry, 2024)
